Literature values, collected in patent publication US20260083720A1 (Vyluma Inc., priority 2022, published 2026).

Columns and labels:
[1] = test system: myopia progression; details: Chan, 0.01% concentration, period of 6 months
[2] = test system: myopia progression; details: Yam et al., atropine at 0.01%; dose-dependent between 0.05% and 0.01%
[3] = test system: myopia progression; details: Hieda et al., atropine group
[4] = test system: myopia progression; details: Wei et al., atropine-placebo group

CN1[C@@H]2CC[C@H]1C[C@@H](OC(=O)C(CO)c1ccccc1)C2 (some centres unmarked) [atropine]
changes in mean SER and AL [1]: can be reduced | effect of atropine on myopia progression [2]: only relatively small effects | mean AL changes at 24 mo ([3]; placebo 0.77): 0.63 mm | Mean SER changes at 24 mo ([3]; placebo −1.48): −1.26 D | mean myopia progression after 24 months [4]: −1.26 D
